From US8153556B2, “Synergistic herbicidal compositions containing benfluralin” (Dow AgroSciences LLC, priority 2009, dated 2012)

Columns and labels:
Test in all cases: Pre-emergence field weed control in winter wheat (visual rating)
Assay type in all cases: in vivo
[1] = system: ALOMY = Alopecurus agrestis L. (blackgrass)
Protocol: (§1) Soft winter wheat was planted using normal cultural practices in France and Germany in October under normal environmental conditions that allowed rapid germination and growth of wheat and weeds. Fields were prepared as per normal cultural practices, by applying appropriate fertilizers for normal winter wheat growth and yield, working and leveling the ground, and planting at normal time of year using 150 to 170 kg/ha seed with mechanical planters to maximize emergence, growth and yield. Weed infestations varied from 280 to 500 plants per square meter (plants/m^2).
(§2) Treatments consisted of benfluralin applied alone, as well as diflufenican, flufenacet and prosulfocarb applied alone, and in combination with benfluralin, to measure herbicidal weed control and any synergistic interactions. These treatments were applied using backpack sprayers applying spray volumes of 200-250 liters per hectare (L/ha) at a spray pressure of 230 KPA to plots 2.5 meters (m)×8 m, randomized 4 times per treatment. All treatments were applied pre-emergence to the soil, after planting the winter wheat. The pre-emergence treatments were activated with normal rainfall. Treatments were rated on a 0-100% scale, with 0%=no control and 100%=complete control.
(§3) Colby's equation was used to determine the herbicidal effects expected from the mixtures (Colby, S. R. Weeds 1967, 15, 20-22. Calculation of the synergistic and antagonistic response of herbicide combinations).
(§4) The following equation was used to calculate the expected activity of mixtures containing two active ingredients, A and B: Expected=A+B−(A×B/100)
(§5) A=observed efficacy of active ingredient A at the same concentration as used in the mixture.
(§6) B=observed efficacy of active ingredient B at the same concentration as used in the mixture.
(§7) The herbicide tankmix combinations tested, application rates and ratios employed, plant species tested, and results are given in Tables 1 to 6.

[2] = system: GERRT = Geranium rotundifolium L. (round-leaved Cranesbill); conditions: benfluralin 1,000 g ai/ha
Protocol: as §1, §2, §3, §4, §5, §6, §7

[3] = system: VERHE = Veronica hederifolia L. (ivyleaf speedwell); conditions: Test 2, 150 days after application, benfluralin 1,200 g ai/ha, flufenacet 240 g ai/ha
Protocol: as §1, §2, §3, §4, §5, §6, §7

[4] = system: GALAP = Galium aparine L. (cleavers); conditions: benfluralin 1,000 g ai/ha, prosulfocarb 3,000 g ai/ha
Protocol: as §1, §2, §3, §4, §5, §6, §7

[5] = Test 1, 27 days after application, benfluralin 1,000 g ai/ha, diflufenican 100 g ai/ha
[6] = Test 1, 174 days after application, benfluralin 1,000 g ai/ha, diflufenican 100 g ai/ha
[7] = Test 1, 236 days after application, benfluralin 1,000 g ai/ha, diflufenican 100 g ai/ha
[8] = Test 2, 169 days after application, benfluralin 1,000 g ai/ha, diflufenican 100 g ai/ha
[9] = Test 2, 199 days after application, benfluralin 1,000 g ai/ha, diflufenican 100 g ai/ha
[10] = Test 1, 27 days after application, diflufenican 100 g ai/ha
[11] = Test 1, 236 days after application, diflufenican 100 g ai/ha
[12] = Test 1, 13 days after application, benfluralin 1,200 g ai/ha, flufenacet 240 g ai/ha
[13] = Test 1, 236 days after application, benfluralin 1,200 g ai/ha, flufenacet 240 g ai/ha
[14] = Test 2, 189 days after application, benfluralin 1,200 g ai/ha, flufenacet 240 g ai/ha
[15] = Test 1, 27 days after application, benfluralin 1,000 g ai/ha, prosulfocarb 3,000 g ai/ha
[16] = Test 1, 174 days after application, benfluralin 1,000 g ai/ha, prosulfocarb 3,000 g ai/ha
[17] = Test 1, 236 days after application, benfluralin 1,000 g ai/ha, prosulfocarb 3,000 g ai/ha
[18] = Test 2, 189 days after application, benfluralin 1,000 g ai/ha, prosulfocarb 3,000 g ai/ha
[19] = Test 1, 27 days after application
[20] = Test 1, 174 days after application
[21] = Test 1, 236 days after application
[22] = Test 1, 27 days after application, prosulfocarb 3,000 g ai/ha
[23] = Test 1, 174 days after application, prosulfocarb 3,000 g ai/ha
[24] = Test 1, 236 days after application, prosulfocarb 3,000 g ai/ha

| Structure (SMILES) | % Visual Weed Control ALOMY Obs [1, 5] | % Visual Weed Control ALOMY Obs [1, 6] | % Visual Weed Control ALOMY Obs [1, 7] | % Visual Weed Control ALOMY Obs [1, 8] | % Visual Weed Control ALOMY Obs [1, 9] | % Visual Weed Control GERRT Obs [2, 10] | % Visual Weed Control GERRT Obs [2, 11] | % Visual Weed Control ALOMY Obs [1, 12] | % Visual Weed Control ALOMY Obs [1, 13] | % Visual Weed Control ALOMY Obs [1, 14] | % Visual Weed Control VERHE Obs [3] | % Visual Weed Control ALOMY Obs [1, 15] | % Visual Weed Control ALOMY Obs [1, 16] | % Visual Weed Control ALOMY Obs [1, 17] | % Visual Weed Control ALOMY Obs [1, 18] | % Visual Weed Control GALAP Obs [4, 19] | % Visual Weed Control GALAP Obs [4, 20] | % Visual Weed Control GALAP Obs [4, 21] | % Visual Weed Control GERRT Obs [2, 22] | % Visual Weed Control GERRT Obs [2, 23] | further results |
| --- | --- | --- | --- | --- | --- | --- | --- | --- | --- | --- | --- | --- | --- | --- | --- | --- | --- | --- | --- | --- | --- |
| O=C(Nc1ccc(F)cc1F)c1cccnc1Oc1cccc(C(F)(F)F)c1 [Diflufenican, N-(2,4-difluorophenyl)-2-[3-(trifluoromethyl)phenoxy]-3-pyridinecarboxamide] | 19% | 22% | 23% | 0% | 7% | 72% | 63% |  |  |  |  |  |  |  |  |  |  |  |  |  |  |
| CC(C)N(C(=O)COc1nnc(C(F)(F)F)s1)c1ccc(F)cc1 [Flufenacet, N-(4-fluorophenyl)-N-(1-methylethyl)-2-[[5-(trifluoromethyl)-1,3,4-thiadiazol-2-yl]oxy]acetamide] |  |  |  |  |  |  |  | 26% | 80% | 82% | 0% |  |  |  |  |  |  |  |  |  |  |
| CCCN(CCC)C(=O)SCc1ccccc1 [Prosulfocarb, S-(phenylmethyl) dipropylcarbamothioate] |  |  |  |  |  |  |  |  |  |  |  | 30% | 33% | 35% | 30% | 37% | 39% | 42% | 21% | 25% | % Visual Weed Control GERRT Obs [2, 24]: 27% |
| CCCCN(CC)c1c([N+](=O)[O-])cc(C(F)(F)F)cc1[N+](=O)[O-] [Benfluralin, N-butyl-N-ethyl-2,6-dinitro-4-(trifluoromethyl)benzenamine] | 17% | 20% | 23% | 0% | 0% | 6% | 7% | 7% | 29% | 0% | 43% | 17% | 20% | 23% | 0% | 7% | 8% | 7% | 6% | 7% | % Visual Weed Control GERRT Obs [2, 24]: 7% |
